According to patent publication EP4745135A1 (Gluetacs Therapeutics (Shanghai) Co., Ltd., priority 2023, dated 2025):

Legend:
[1] = test system: GSPT1; assay: Western blot, degradation of substrate protein in hPBMCs; assay type: cell-based, Human
[2] = target: T1, human Cereblon WT GST-tagged protein (Homo sapiens, UniProt Q96SW2); assay: CRBN-binding affinity, HTRF (CEREBLON BINDING kit); settings: for inhibition at 0.5 µM: read-out: Inhibition Rate at 0.5 µM (%); for inhibition at 2 µM: read-out: Inhibition Rate at 2 µM (%)
T1 construct: purchased CISBIO 64BDCRBNPEH
T1 sequence (Q96SW2 whole entry): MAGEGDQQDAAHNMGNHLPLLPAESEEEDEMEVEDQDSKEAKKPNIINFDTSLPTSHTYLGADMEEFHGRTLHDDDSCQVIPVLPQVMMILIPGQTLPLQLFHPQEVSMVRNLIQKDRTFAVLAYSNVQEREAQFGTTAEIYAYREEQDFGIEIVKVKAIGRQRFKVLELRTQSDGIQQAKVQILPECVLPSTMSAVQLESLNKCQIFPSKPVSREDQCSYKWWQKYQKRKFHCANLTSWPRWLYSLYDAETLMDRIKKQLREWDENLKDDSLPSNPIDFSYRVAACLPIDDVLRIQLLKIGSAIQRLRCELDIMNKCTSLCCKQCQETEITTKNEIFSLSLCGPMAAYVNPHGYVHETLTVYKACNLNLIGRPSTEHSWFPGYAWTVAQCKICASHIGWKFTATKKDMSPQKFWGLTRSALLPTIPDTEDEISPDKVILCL

[3] = target: T2, IKZF2 (Homo sapiens, UniProt Q96SW2+Q9UKS7); assay: Western blot, degradation of substrate protein in hPBMCs; assay type: cell-based
T2 construct: effects of the compounds of the present disclosure on the expression of target proteins in cells; endogenous in cells; host or cells: human PBMCs (Milecell Biotechnologies)
T2 sequence (Q9UKS7 whole entry): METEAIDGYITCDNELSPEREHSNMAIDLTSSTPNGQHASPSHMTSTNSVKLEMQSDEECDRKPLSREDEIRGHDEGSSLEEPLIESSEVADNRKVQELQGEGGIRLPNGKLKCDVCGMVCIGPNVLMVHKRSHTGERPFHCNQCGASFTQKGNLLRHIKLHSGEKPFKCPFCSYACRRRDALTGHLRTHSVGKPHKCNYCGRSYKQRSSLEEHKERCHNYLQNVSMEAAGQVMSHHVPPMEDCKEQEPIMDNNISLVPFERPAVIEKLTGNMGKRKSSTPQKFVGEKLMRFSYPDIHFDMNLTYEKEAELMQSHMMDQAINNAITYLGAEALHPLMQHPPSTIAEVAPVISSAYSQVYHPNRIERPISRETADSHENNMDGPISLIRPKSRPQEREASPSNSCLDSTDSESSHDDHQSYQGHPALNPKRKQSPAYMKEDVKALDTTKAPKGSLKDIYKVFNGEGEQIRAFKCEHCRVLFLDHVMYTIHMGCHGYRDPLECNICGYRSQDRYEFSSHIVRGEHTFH
T2 sequence (Q96SW2 whole entry): as the sequence (Q96SW2 whole entry) above
T2 sequence (Q16531 whole entry partner): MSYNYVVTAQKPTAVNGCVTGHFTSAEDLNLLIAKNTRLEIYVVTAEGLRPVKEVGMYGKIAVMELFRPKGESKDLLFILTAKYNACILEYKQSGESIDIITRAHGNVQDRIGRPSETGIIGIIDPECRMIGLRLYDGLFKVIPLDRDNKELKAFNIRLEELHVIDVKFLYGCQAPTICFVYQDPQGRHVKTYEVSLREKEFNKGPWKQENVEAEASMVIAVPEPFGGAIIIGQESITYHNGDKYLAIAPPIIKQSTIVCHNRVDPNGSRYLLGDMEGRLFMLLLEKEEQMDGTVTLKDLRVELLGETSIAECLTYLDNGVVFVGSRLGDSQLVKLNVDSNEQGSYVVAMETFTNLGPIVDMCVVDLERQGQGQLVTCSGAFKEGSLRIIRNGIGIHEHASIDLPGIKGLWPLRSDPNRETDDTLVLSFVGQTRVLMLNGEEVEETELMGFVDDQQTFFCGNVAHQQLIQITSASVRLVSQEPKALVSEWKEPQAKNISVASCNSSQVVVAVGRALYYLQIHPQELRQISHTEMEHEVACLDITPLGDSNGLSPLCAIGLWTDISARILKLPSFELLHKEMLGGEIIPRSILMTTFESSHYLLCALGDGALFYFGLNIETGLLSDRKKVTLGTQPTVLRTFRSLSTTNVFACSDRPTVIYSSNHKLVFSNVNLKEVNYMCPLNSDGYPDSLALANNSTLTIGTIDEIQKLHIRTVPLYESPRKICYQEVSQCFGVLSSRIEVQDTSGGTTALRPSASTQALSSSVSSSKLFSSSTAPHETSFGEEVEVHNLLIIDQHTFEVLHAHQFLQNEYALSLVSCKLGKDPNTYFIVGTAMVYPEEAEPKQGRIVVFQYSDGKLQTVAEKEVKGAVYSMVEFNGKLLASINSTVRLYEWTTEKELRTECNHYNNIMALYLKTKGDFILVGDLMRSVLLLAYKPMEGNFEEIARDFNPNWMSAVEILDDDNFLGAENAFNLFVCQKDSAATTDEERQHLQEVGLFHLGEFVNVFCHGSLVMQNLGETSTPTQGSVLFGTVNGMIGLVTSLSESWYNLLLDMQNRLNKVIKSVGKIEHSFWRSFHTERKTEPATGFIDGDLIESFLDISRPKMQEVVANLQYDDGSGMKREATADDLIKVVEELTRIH

[4] = target: T3, IKZF1 (Homo sapiens, UniProt Q13422+Q96SW2); assay: as above; assay type: cell-based
T3 construct: effects of the compounds of the present disclosure on the expression of target proteins in cells; endogenous in cells; host or cells: human PBMCs (Milecell Biotechnologies)
T3 sequence (Q13422 whole entry): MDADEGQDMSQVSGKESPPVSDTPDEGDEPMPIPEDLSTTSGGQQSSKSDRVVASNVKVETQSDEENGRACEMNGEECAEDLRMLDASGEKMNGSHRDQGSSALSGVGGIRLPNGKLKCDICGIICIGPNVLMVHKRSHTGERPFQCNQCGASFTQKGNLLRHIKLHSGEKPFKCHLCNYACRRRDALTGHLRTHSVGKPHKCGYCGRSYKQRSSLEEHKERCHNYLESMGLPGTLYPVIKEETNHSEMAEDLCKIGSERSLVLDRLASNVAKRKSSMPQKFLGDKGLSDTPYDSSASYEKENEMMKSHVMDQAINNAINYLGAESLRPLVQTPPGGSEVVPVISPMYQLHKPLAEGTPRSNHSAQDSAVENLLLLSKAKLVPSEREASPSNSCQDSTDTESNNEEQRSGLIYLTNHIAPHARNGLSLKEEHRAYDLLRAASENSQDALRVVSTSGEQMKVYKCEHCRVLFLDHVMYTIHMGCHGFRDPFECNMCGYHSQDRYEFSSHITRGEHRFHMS
T3 sequence (Q96SW2 whole entry): as the sequence (Q96SW2 whole entry) above
T3 sequence (Q16531 whole entry partner): as the sequence (Q16531 whole entry partner) above

[5] = target: T4, IKZF3 (Homo sapiens, UniProt Q96SW2+Q9UKT9); assay: as above; assay type: cell-based
T4 construct: effects of the compounds of the present disclosure on the expression of target proteins in cells; endogenous in cells; host or cells: human PBMCs (Milecell Biotechnologies)
T4 sequence (Q9UKT9 whole entry): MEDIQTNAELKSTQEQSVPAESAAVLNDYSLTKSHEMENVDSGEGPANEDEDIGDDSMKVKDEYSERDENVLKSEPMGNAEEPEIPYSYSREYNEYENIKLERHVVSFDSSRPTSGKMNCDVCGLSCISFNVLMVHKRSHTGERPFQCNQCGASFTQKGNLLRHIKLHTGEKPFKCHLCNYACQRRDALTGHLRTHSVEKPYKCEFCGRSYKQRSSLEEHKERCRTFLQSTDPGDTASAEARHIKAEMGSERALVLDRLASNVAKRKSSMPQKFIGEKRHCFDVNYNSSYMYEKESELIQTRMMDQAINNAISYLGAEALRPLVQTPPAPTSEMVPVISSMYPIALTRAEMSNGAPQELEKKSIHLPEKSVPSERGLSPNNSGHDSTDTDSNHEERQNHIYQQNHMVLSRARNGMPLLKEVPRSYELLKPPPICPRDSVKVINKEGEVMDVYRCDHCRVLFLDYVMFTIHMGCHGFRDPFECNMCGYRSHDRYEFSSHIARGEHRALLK
T4 sequence (Q96SW2 whole entry): as the sequence (Q96SW2 whole entry) above
T4 sequence (Q16531 whole entry partner): as the sequence (Q16531 whole entry partner) above

[6] = target: T5, WEE1 (Homo sapiens, UniProt P30291+Q96SW2); assay: as above; assay type: cell-based
T5 construct: effects of the compounds of the present disclosure on the expression of target proteins in cells; endogenous in cells; host or cells: human PBMCs (Milecell Biotechnologies)
T5 sequence (P30291 whole entry): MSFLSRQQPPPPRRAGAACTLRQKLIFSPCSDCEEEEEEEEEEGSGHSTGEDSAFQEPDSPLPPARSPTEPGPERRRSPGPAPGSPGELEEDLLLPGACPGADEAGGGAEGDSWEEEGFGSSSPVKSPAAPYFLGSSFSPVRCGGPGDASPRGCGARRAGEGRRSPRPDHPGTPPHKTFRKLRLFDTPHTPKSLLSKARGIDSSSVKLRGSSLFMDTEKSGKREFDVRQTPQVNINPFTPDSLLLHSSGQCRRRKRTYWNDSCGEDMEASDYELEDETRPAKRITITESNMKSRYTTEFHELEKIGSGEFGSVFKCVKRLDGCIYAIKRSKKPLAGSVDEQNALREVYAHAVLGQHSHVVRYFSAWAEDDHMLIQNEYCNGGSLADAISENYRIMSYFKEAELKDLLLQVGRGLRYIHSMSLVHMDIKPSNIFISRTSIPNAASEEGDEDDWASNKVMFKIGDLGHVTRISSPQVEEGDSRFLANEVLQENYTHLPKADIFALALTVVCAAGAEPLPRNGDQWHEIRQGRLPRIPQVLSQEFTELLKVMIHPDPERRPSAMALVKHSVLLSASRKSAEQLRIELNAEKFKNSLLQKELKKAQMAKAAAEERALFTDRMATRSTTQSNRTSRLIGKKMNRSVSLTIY
T5 sequence (Q96SW2 whole entry): as the sequence (Q96SW2 whole entry) above
T5 sequence (Q16531 whole entry partner): as the sequence (Q16531 whole entry partner) above

[7] = target: T6, CK1α (Homo sapiens, UniProt P48729+Q96SW2); assay: as above; assay type: cell-based
T6 construct: effects of the compounds of the present disclosure on the expression of target proteins in cells; endogenous in cells; host or cells: human PBMCs (Milecell Biotechnologies)
T6 sequence (P48729 whole entry): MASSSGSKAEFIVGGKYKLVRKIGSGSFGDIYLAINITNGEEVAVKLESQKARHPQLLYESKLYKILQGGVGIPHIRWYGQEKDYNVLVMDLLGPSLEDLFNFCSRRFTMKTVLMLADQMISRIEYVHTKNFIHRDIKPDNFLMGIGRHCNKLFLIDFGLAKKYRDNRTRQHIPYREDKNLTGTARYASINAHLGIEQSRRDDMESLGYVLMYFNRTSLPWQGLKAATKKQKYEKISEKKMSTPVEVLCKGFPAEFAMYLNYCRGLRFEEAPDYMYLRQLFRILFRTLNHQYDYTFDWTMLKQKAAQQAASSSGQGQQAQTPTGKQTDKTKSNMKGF
T6 sequence (Q96SW2 whole entry): as the sequence (Q96SW2 whole entry) above
T6 sequence (Q16531 whole entry partner): as the sequence (Q16531 whole entry partner) above

[8] = Western blot, 24 hours of compound treatment, compounds tested at 50 nM and 500 nM (concentration for the table not stated)
[9] = 24 hours treatment, compounds at 50 nM and 500 nM (concentration behind the class not stated)

SMILES | GSPT1 substrate protein remaining % [1, 8] | inhibition at 0.5 µM [2] | inhibition at 2 µM [2] | IKZF2 substrate protein remaining % [3, 8] | IKZF 1 substrate protein remaining % [4, 8] | IKZF3 substrate protein remaining % [5, 8] | Wee1 substrate protein remaining % [6, 8] | CK1α substrate protein remaining % [7, 8] | GSPT1 substrate protein remaining % [1, 9] | IKZF2 substrate protein remaining % [3, 9] | IKZF 1 substrate protein remaining % [4, 9] | IKZF3 substrate protein remaining % [5, 9] | Wee1 substrate protein remaining % [6, 9] | CK1α substrate protein remaining % [7, 9]
COc1cccc(N2CCN(Cc3cccc4c3CN(C3CCC(=O)NC3=O)C4=S)CC2)c1 (stereo not shown) [GT-08304, 3-(4-((4-(3-methoxyphenyl)piperazin-1-yl)methyl)-1-thioxoisoindolin-2-yl)piperidine-2,6-dione] | B (80%< substrate protein remaining %≤ 100%) | 60 to 80% | 60 to 80% | B (80%< substrate protein remaining %≤ 100%) | A (0% ≤ substrate protein remaining % ≤ 80%) | B (80%< substrate protein remaining %≤ 100%) | A (0% ≤ substrate protein remaining % ≤ 80%) | B (80%< substrate protein remaining %≤ 100%) | – | – | – | – | – | –
Cc1ccc(N2CCN(Cc3cccc4c3CN(C3CCC(=O)NC3=O)C4=S)CC2)s1 (stereo not shown) [GT-08305, 3-(4-((4-(5-methylthiophen-2-yl)piperazin-1-yl)methyl)-1-thioxoisoindolin-2-yl)piperidine-2,6-dione] | – | 60 to 80% | 80 to 100% | – | – | – | – | – | B (80%< substrate protein remaining %≤ 100%) | A (0% ≤ substrate protein remaining % ≤ 80%) | B (80%< substrate protein remaining %≤ 100%) | B (80%< substrate protein remaining %≤ 100%) | B (80%< substrate protein remaining %≤ 100%) | B (80%< substrate protein remaining %≤ 100%)
Cc1cscc1N1CCN(Cc2cccc3c2CN(C2CCC(=O)NC2=O)C3=S)CC1 (stereo not shown) [GT-08306, 3-(4-((4-(4-methylthiophen-3-yl)piperazin-1-yl)methyl)-1-thioxoisoindolin-2-yl)piperidine-2,6-dione] | – | 53 to 60% | 80 to 100% | – | – | – | – | – | B (80%< substrate protein remaining %≤ 100%) | B (80%< substrate protein remaining %≤ 100%) | B (80%< substrate protein remaining %≤ 100%) | B (80%< substrate protein remaining %≤ 100%) | A (0% ≤ substrate protein remaining % ≤ 80%) | B (80%< substrate protein remaining %≤ 100%)
Cc1ccc(C2=CCN(Cc3cccc4c3CN(C3CCC(=O)NC3=O)C4=S)CC2)s1 (stereo not shown) [GT-08307, 3-(4-((4-(5-methylthiophen-2-yl)-3,6-dihydropyridin-1(2H)-yl)methyl)-1-thioxoisoindolin-2-yl)piperidine-2,6-dione] | – | 53 to 60% | 80 to 100% | – | – | – | – | – | B (80%< substrate protein remaining %≤ 100%) | B (80%< substrate protein remaining %≤ 100%) | B (80%< substrate protein remaining %≤ 100%) | B (80%< substrate protein remaining %≤ 100%) | A (0% ≤ substrate protein remaining % ≤ 80%) | B (80%< substrate protein remaining %≤ 100%)
Cc1cscc1C1=CCN(Cc2cccc3c2CN(C2CCC(=O)NC2=O)C3=S)CC1 (stereo not shown) [GT-08308, 3-(4-((4-(4-methylthiophen-3-yl)-3,6-dihydropyridin-1(2H)-yl)methyl)-1-thioxoisoindolin-2-yl)piperidine-2,6-dione] | – | 53 to 60% | 60 to 80% | – | – | – | – | – | B (80%< substrate protein remaining %≤ 100%) | B (80%< substrate protein remaining %≤ 100%) | B (80%< substrate protein remaining %≤ 100%) | B (80%< substrate protein remaining %≤ 100%) | A (0% ≤ substrate protein remaining % ≤ 80%) | B (80%< substrate protein remaining %≤ 100%)
Cc1cscc1C1CCN(Cc2cccc3c2CN(C2CCC(=O)NC2=O)C3=S)CC1 (stereo not shown) [GT-08309, 3-(4-((4-(4-methylthiophen-3-yl)piperidin-1-yl)methyl)-1-thioxoisoindolin-2-yl)piperidine-2,6-dione] | – | 53 to 60% | 80 to 100% | – | – | – | – | – | B (80%< substrate protein remaining %≤ 100%) | B (80%< substrate protein remaining %≤ 100%) | B (80%< substrate protein remaining %≤ 100%) | B (80%< substrate protein remaining %≤ 100%) | A (0% ≤ substrate protein remaining % ≤ 80%) | B (80%< substrate protein remaining %≤ 100%)
O=C1CCC(N2Cc3c(CN4CC=C(c5ccco5)CC4)cccc3C2=S)C(=O)N1 (stereo not shown) [GT-08311, 3-(4-((4-(furan-2-yl)-3,6-dihydropyridin-1 (2H)-yl)methyl)-1-thioxoisoindolin-2-yl)piperidine-2,6-dione] | – | 60 to 80% | 80 to 100% | – | – | – | – | – | B (80%< substrate protein remaining %≤ 100%) | B (80%< substrate protein remaining %≤ 100%) | B (80%< substrate protein remaining %≤ 100%) | B (80%< substrate protein remaining %≤ 100%) | A (0% ≤ substrate protein remaining % ≤ 80%) | B (80%< substrate protein remaining %≤ 100%)
Cc1ccc(C2CCN(Cc3cccc4c3CN(C3CCC(=O)NC3=O)C4=S)CC2)s1 (stereo not shown) [GT-08312, 3-(4-((4-(5-methylthiophen-2-yl)piperidin-1-yl)methyl)-1-thioxoisoindolin-2-yl)piperidine-2,6-dione] | – | 53 to 60% | 80 to 100% | – | – | – | – | – | B (80%< substrate protein remaining %≤ 100%) | B (80%< substrate protein remaining %≤ 100%) | B (80%< substrate protein remaining %≤ 100%) | B (80%< substrate protein remaining %≤ 100%) | A (0% ≤ substrate protein remaining % ≤ 80%) | B (80%< substrate protein remaining %≤ 100%)
O=C1CCC(N2Cc3c(CN4CCN(c5ccsc5)CC4)cccc3C2=S)C(=O)N1 (stereo not shown) [GT-08313, 3-(4-((4-(thiophen-3-yl)piperazin-1-yl)methyl)-1-thioxoisoindolin-2-yl)piperidine-2,6-dione] | – | 40 to 53% | 60 to 80% | – | – | – | – | – | B (80%< substrate protein remaining %≤ 100%) | A (0% ≤ substrate protein remaining % ≤ 80%) | B (80%< substrate protein remaining %≤ 100%) | B (80%< substrate protein remaining %≤ 100%) | A (0% ≤ substrate protein remaining % ≤ 80%) | B (80%< substrate protein remaining %≤ 100%)
O=C1CCC(N2Cc3c(CN4CCC(c5ccsc5)CC4)cccc3C2=S)C(=O)N1 (stereo not shown) [GT-08315, 3-(4-((4-(thiophen-3-yl)piperidin-1-yl)methyl)-1-thioxoisoindolin-2-yl)piperidine-2,6-dione] | – | 40 to 53% | 60 to 80% | – | – | – | – | – | B (80%< substrate protein remaining %≤ 100%) | B (80%< substrate protein remaining %≤ 100%) | B (80%< substrate protein remaining %≤ 100%) | B (80%< substrate protein remaining %≤ 100%) | A (0% ≤ substrate protein remaining % ≤ 80%) | B (80%< substrate protein remaining %≤ 100%)
O=C1CCC(N2Cc3c(CN4CCC(c5ccoc5)CC4)cccc3C2=S)C(=O)N1 (stereo not shown) [GT-08317, 3-(4-((4-(furan-3-yl)piperidin-1-yl)methyl)-1-thioxoisoindolin-2-yl)piperidine-2,6-dione] | – | 40 to 53% | 60 to 80% | – | – | – | – | – | B (80%< substrate protein remaining %≤ 100%) | A (0% ≤ substrate protein remaining % ≤ 80%) | B (80%< substrate protein remaining %≤ 100%) | A (0% ≤ substrate protein remaining % ≤ 80%) | A (0% ≤ substrate protein remaining % ≤ 80%) | B (80%< substrate protein remaining %≤ 100%)
